These compounds were tested against T1, ITPKb (Mus musculus, UniProt B2RXC2) (assay: Biochemical measurement of ITPKb activity (Kinase-Glo ATP depletion assay); inhibiting the phosphorylation of IP3 to IP4). Details: Table 1; inhibiting the phosphorylation of IP3 to IP4; read-out: IC50.
T1 construct: murine ITPKb residues 640-942; MGSDKIHHHHHH (His6 tag from MH4 plasmid) (N); made in house; host or cells: Escherichia coli HK100
T1 sequence (B2RXC2 640-942): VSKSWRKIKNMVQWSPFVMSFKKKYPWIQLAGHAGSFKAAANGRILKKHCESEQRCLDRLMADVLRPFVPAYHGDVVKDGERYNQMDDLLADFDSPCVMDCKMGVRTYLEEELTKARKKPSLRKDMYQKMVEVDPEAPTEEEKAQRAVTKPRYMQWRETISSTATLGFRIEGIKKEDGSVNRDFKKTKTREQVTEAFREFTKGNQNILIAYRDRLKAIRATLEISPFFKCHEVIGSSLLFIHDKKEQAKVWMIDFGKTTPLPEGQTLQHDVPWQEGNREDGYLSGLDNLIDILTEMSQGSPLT
Parameters: species or system murine
Procedure: Compounds of the present invention are assayed to measure their capacity to inhibit ITPKb according to the following assays.
The DNA sequence encoding murine ITPKb residues 640-942 is amplified from a full-length construct in mammalian expression vector pKDNZ by PCR. The 3′-primer incorporates a stop codon and an overhanging PacI site. The product is digested with Pad before being ligated into the MH4 plasmid which has been prepared by digestion with PmlI and PacI. Cloning into the MH4 plasmid adds the sequence MGSDKIHHHHHH to the N-terminus of the translated region. Mutant enzymes are made by site-directed mutagenesis using the Stratagene Quikchange kit.
ITPKb is expressed in the HK100 strain of Escherichia coli. Typically, a 4 L batch of cells is grown in LB with […] ampicillin to 0.5 A600 at 30 degrees C., before induction with 0.02% L-arabinose for 6 hours. Cells are harvested by centrifugation, and pellets are resuspended in 50 mL of 50 mM Tris (pH 8), 100 mM NaCl, 1 mM TCEP, and 0.1 mg/mL lysozyme, with 1 Complete protease inhibitor tablet (Roche). Cells are disrupted by sonication, and debris is removed by centrifugation for 40 minutes at 35000 g.
Initial purification is performed using three nickel-Sepharose Hi-Trap HP 1 mL columns (Amersham) connected in series. After application of the pellet supernatants, the bound material is washed with 20 mM Tris (pH 8.0), 20 mM imidazole, 10% glycerol (v/v), and 1 mM TCEP before elution with an imidazole gradient up to 200 mM.
Fractions containing ITPKb are identified by SDS-PAGE, and the pure fractions are concentrated and buffer exchanged using centriprep 20 15 kDa columns into 20 mM Tris (pH 8), 200 mM KCl, 5 mM MgCl2, 0.5 mM DTT, 10% glycerol, 1 μM IP3, and 20 μM ATP to a final protein concentration of 7 mg/mL.
ITPKb activity is determined using the Kinase-Glo (Promega) ATP depletion assay. The assay reaction buffer consists of 50 mM Tris (pH 8.0), 100 mM NaCl, 1 mM DTT, 10% glycerol, 5 mM MgCl2, 1 μM ATP, and 10 μM IP3 (Alexis Biochemicals). 50 nl of inhibitor is then added to each 40 μL reaction followed by a 10 μL addition of purified ITPKb (final concentration of 60 nM). The reaction mixture is incubated for 60 minutes at room temperature and stopped by the addition of an equal volume of kinase-glo reagent (Promega). Luminescence is measured using a Molecular Devices Acquest instrument.

| Structure (SMILES) | IC50 [nM] |
| --- | --- |
| C[C@@H]1CN(Cc2c[nH]nc2C(=O)Nc2cc(-c3ccco3)n[nH]2)CCN1c1ccc(C(F)(F)F)cn1 [Example 31] | 5330 |
| Cc1cc(NC(=O)c2n[nH]cc2CN2CCN(c3ccc(C(F)(F)F)cn3)[C@H](C)C2)n(CCN(C)C)n1 [Example 32] | 6190 |
| C[C@@H]1CN(Cc2c[nH]nc2C(=O)Nc2n[nH]cc2C#N)CCN1c1ccc(C(F)(F)F)cn1 [Example 33] | > 10000 |
| C[C@@H]1CN(Cc2c[nH]nc2C(=O)N2CC(O)C2)CCN1c1ccc(C(F)(F)F)cn1 [Example 34] | > 10000 |
| C[C@@H]1CN(Cc2c[nH]nc2C(=O)N2CCC(O)C2)CCN1c1ccc(C(F)(F)F)cn1 (stereo partly drawn) [Example 35] | > 10000 |
| C[C@@H]1CN(Cc2c[nH]nc2C(=O)N2CCC(O)CC2)CCN1c1ccc(C(F)(F)F)cn1 [Example 36] | > 10000 |
| COC(=O)c1ccc(-c2n[nH]cc2CN2CCN(c3ccc(C(F)(F)F)cn3)[C@H](C)C2)o1 [Example 37] | 984 |
| C[C@@H]1CN(Cc2c[nH]nc2-c2ccc(C(=O)O)o2)CCN1c1ccc(C(F)(F)F)cn1 [Example 38] | 435 |
| C[C@@H]1CN(Cc2c[nH]nc2-c2ccc(C(N)=O)o2)CCN1c1ccc(C(F)(F)F)cn1 [Example 39] | 8 |
| C[C@@H]1CN(Cc2c[nH]nc2-c2ccnc3[nH]ccc23)CCN1c1ccc(C(F)(F)F)cn1 [Example 40] | 478 |
| C[C@@H]1CN(Cc2c[nH]nc2-c2cc(C(=O)N(C)C)c[nH]2)CCN1c1ccc(C(F)(F)F)cn1 [Example 41] | 85 |
| C[C@@H]1CN(Cc2c[nH]nc2-c2cc(C(=O)NCCO)c[nH]2)CCN1c1ccc(C(F)(F)F)cn1 [Example 42] | 14 |
| CC(O)CNC(=O)c1c[nH]c(-c2n[nH]cc2CN2CCN(c3ccc(C(F)(F)F)cn3)[C@H](C)C2)c1 (stereo partly drawn) [Example 43] | 14 |
| C[C@@H]1CN(Cc2c[nH]nc2-c2c[nH]c3ncccc23)CCN1c1ccc(C(F)(F)F)cn1 [Example 44] | 182 |
| C[C@@H]1CN(Cc2c[nH]nc2-c2cc(C(=O)N[C@@H](C)CO)c[nH]2)CCN1c1ccc(C(F)(F)F)cn1 [Example 45] | 6 |
| C[C@@H]1CN(Cc2c[nH]nc2/C=C2\NC(=S)NC2=O)CCN1c1ccc(C(F)(F)F)cn1 [Example 46] | > 10000 |
| CC(=O)N1CC=C(c2n[nH]cc2CN2CCN(c3ccc(C(F)(F)F)cn3)[C@H](C)C2)CC1 [Example 47] | 66 |

Now from value to compound:

| IC50 [nM] | Structure (SMILES) |
| --- | --- |
| 431 | C[C@@H]1CN(Cc2c[nH]nc2C2CCNCC2)CCN1c1ccc(C(F)(F)F)cn1 [Example 48] |
| 241 | C[C@@H]1CN(Cc2c[nH]nc2C2CCN(C=O)CC2)CCN1c1ccc(C(F)(F)F)cn1 [Example 49] |
| 99 | C[C@@H]1CN(Cc2c[nH]nc2/C=C2\NC(=N)NC2=O)CCN1c1ccc(C(F)(F)F)cn1 [Example 50] |
| 2 | NC(=O)c1c[nH]c(-c2n[nH]cc2CN2CCN(c3ccc(C(F)(F)F)cn3)[C@H](C(F)(F)F)C2)c1 [Example 51] |
| 1040 | C[C@@H]1CN(Cc2c[nH]nc2-c2cc(C(=O)O)co2)CCN1c1ccc(C(F)(F)F)cn1 [Example 52] |
| 78 | C[C@@H]1CN(Cc2c[nH]nc2-c2cc(C(N)=O)co2)CCN1c1ccc(C(F)(F)F)cn1 [Example 53] |
| 80 | C[C@@H]1CN(Cc2c[nH]nc2C2=CCN(C(=O)CCO)CC2)CCN1c1ccc(C(F)(F)F)cn1 [Example 54] |
